The test system of the assay is norovirus. The experiment in a line: Anti-norovirus characteristics test (viral genome RNA by real-time PCR). As to conditions: comparative test results of Example 1. Here is the method:
A frozen stock solution of a norovirus isolated from stools of a patient and cryopreserved at −80° C. was thawed on ice. A hundred microliters of the norovirus stock solution was diluted ten times with phosphate-buffered saline (PBS) and was spun in a refrigerated centrifuge at 10,000 rpm for 20 minutes to remove a precipitate. The resulting “norovirus test solution” (950 μL solution) was used in the following examples.
The “real-time PCR” in the following examples was performed in accordance with a document “Detection Method for Norovirus” attached to a notice (Notice No. 1105001 from the Inspection and Safety Division, dated Nov. 5, 2003. See http://www.mhlw.go.jp/topics/syokuchu/kanren/kanshi/031105-1.html) issued by the Director of the Inspection and Safety Division, Department of Food Safety, Pharmaceutical and Food Safety Bureau, Ministry of Health, Labour and Welfare.
The real-time PCR counts the number of viral genomes in the states of […] in FIG. 1. In the following examples, only elimination of (the RNA of) a norovirus illustrated in (c) is rated as “efficacious”, and the survival of (the RNA of) a norovirus illustrated in (b) is rated as “inefficacious” even if the infectivity and proliferative capacity of the norovirus are lost. Nevertheless, an anti-norovirus composition according to the present invention is rated as more efficacious than conventional compositions. Taking the state of a norovirus illustrated in (b) into account, an anti-norovirus composition according to the present invention should therefore have still higher practical efficacy.
Twenty-five microliters of the norovirus test solution and 25 μL of each of the compositions (A1 to A5 or B1 to B7) were sufficiently mixed. […] After the diluted solution was subjected to treatments, such as RNA extraction and cDNA synthesis, viral genome RNAs remaining in the diluted solution was counted by real-time PCR. […] These measured values for the sample solutions and the corresponding controls were compared to determine the inhibition rates of the compositions for the norovirus.

Take `CCCOC(=O)c1cc(O)c(O)c(O)c1` [propyl gallate, gallic acid propyl ester]: the “efficacy for a norovirus (in words)” value is “no efficacy”.

Consider `O=C(O)c1cc(O)c(O)c(O)c1` [gallic acid], for which the “efficacy for a norovirus (in words)” value is “no efficacy”.

On to catechin, for which the “efficacy for a norovirus (in words)” value is listed as “no efficacy”.

The values are drawn from patent publication US8790718B2, “Method of disinfection or infection control against norovirus” (Hiroshima University, priority 2007, dated 2014).
